Laboratory results from paper PMC7962978, “PSMA-D4 Radioligand for Targeted Therapy of Prostate Cancer: Synthesis, Characteristics and Preliminary Assessment of Biological Properties” (International Journal of Molecular Sciences, 2021).
Several values for one entry are separate records, joined by “and”; a condition that tells them apart may be missing. Equal values may be shown once.

Experiments:
[1] = system: LNCaP tumor-bearing mice; test: Ex vivo biodistribution in mice bearing LNCaP tumor
Experimental: An experimental tumor murine model was induced using LNCaP cell, which grew to 80–90% confluence before trypsinization and formulation in Matrixgel™ Basement Membrane Matrix (Bedford, MA, USA) for implantation into mice. The mice were subcutaneously injected in the shoulder with 200 mcL bolus containing a suspension of 10^6 freshly harvested cell line LNCaP in Matrixgel™. This procedure was performed under anaesthesia with 2% isoflurane. The animals were kept under pathogen-free condition, and experiments were performed 2–3 weeks later when a tumor reached a volume of approximately 150 ± 60 mm^3. Then, the animals were randomized into two groups (25 mice per group, five mice per time point): Group 1, treated with a single intravenous injection of [^90Y]Y-PSMA-D4 (0.1 mL, 0.1 mcg, 15.5 MBq, SA 16.7 GBq mg^−1 = 17.2 GBq mcmol^−1) and Group 2, treated with a single intravenous injection of [^47Sc]Sc-PSMA-D4 (0.1 mL, 0.19 mcg, 10 MBq, SA 4.8 GBq mg^−1 = 4.57 GBq mcmol^−1).
At 1, 2, 4, 6, 24, and 48 h after injection, the animals were euthanized by cervical dislocation and dissected. Selected organs and tissues were assayed for their radioactivity and weighted. The physiological distribution was calculated and expressed in terms of the percentage of administrated radioactivity found in each of the selected organs or tissues per gram (%ID g^−1).
Results are provided as mean ± SD. The results of physiological distribution are presented as a percentage of the dose administered per gram of tissue (%ID g^−1) as average value with standard deviation (%ID g^−1; mean ± standard deviation (SD)) with n representing the number of animals per group. Data were statistically analyzed using GraphPad Prism version 8.0.0 for Window.

[2] = Blood pharmacokinetics, one-phase decay model, LNCaP tumor-bearing mice; assay type: in vivo; conditions: i.v.
Experimental: The pharmacokinetic analysis of the [^47Sc]Sc-PSMA-D4 was based on the curves of the %ID g^−1 accumulated in the blood. The pharmacokinetic parameters were determined according to a one-phase decay model. The following parameters were used: K (rate constant) and half-life calculated as ln(2)/K.
For blood activity data, a one-phase exponential decay model was used to model the percentage of remaining activity (%ID g^−1) as a time post-injection function.

[3] = molecular target: T1, PSMA antigen (Homo sapiens, UniProt Q04609); test: Saturation radioligand binding assay on LNCaP (PSMA positive) and PC3 (PSMA negative) cell membranes; conditions: for Kd: LNCaP cell membranes, 2 h, 37 °C; for Specific Binding: total binding on LNCaP minus non-specific binding on PC3 membranes
T1 construct: PSMA antigen expressed on LNCaP cell membranes; endogenous in cells; host or cells: LNCaP cell membranes (PC3 membranes as PSMA-negative control)
Experimental: The equilibrium constant (KD) was determined by a saturation binding experiment performed in PSMA positive LNCaP and PSMA negative PC3 cell membranes isolated according to the procedure developed by Fichna et al.. The 50 mcL of LNCaP and PC3 cell membranes were seeded on special MultiScreen™ 96 well filter plates (Merck, Warsaw, Poland) and incubated for 2 h with increasing concentration of [^177Lu]Lu-PSMA-D4, [^90Y]Y-PSMA-D4, and […] (0.016–194 nM) at 37 °C. After incubation, the unbound radiocomplexes were filtered under vacuum, and the membranes were washed twice using PBS. The filters containing membranes with the attached radiotracer were extruded into tubes using MultiScreen Multile Punch (Merck). The number of associated inhibitors was determined by measuring the radioactivity of squeezed filters using Wallac Wizard 1470 γ counter. The KD and Bmax were calculated by nonlinear regression using the GraphPad Prism statistic program.

[4] = Blood pharmacokinetics, one-phase model, healthy rats; assay type: in vivo; conditions: healthy rats (data not presented)
[5] = Lipophilicity determination (logD), shake-flask method; assay type: physicochemical; conditions: n-octanol / PBS pH 7.4, shake-flask
Experimental: The partition coefficient logD of the radioligands was determined by the shake-flask method. The solution of 10 to 50 MBq of radiolabeled PSMA ligands (D-4, 617, 11, I&T) in 1.0 mL of phosphate-buffered saline (PBS, pH 7.4) was added to 1.0 mL of presaturated n-octanol solution (n = 3). Vials were shaken vigorously for 10 min. To achieve quantitative phase separation, the vials were centrifuged at 1600 rpm for 5 min. The radioactivity concentration in a defined volume of both the aqueous and the organic phase in six replicates each was measured in a γ-counter (Wizard 1470, Wallac, Turku, Finland). The partition coefficient was calculated as the logarithm of the ratio between counts per minute (cpm) measured in the n-octanol phase to the PBS phase counts.

[6] = system: LNCaP cells; test: Cell uptake (total binding) and internalization in LNCaP cells; assay type: cell-based, human; conditions: 37 °C, 2 h
Experimental: To determine cell uptake and internalization of [^177Lu]Lu-PSMA-D4 and [^90Y]Y-PSMA-D4, LNCaP cells (5 × 10^5 cells well^−1) were incubated in un-supplemented RPMI 1640 medium with one concentration of tested radioligands on 12-well plates in 37 °C per 2 h. After the appropriate time, the medium was removed, and cells were washed twice using phosphate buffer saline (PBS, IITD PAN, Wroclaw, Poland). The cells were treated twice with 1 mL of 50 mM glycine in 0.1 M NaCl at a pH of 2.8 and incubated for 5 min at room temperature to collect extracellularly bound compound. The internalization was determined by measuring the radioactivity of 1mL of 1 M NaOH used for cell lysis. Total binding was calculated as a sum of the membrane and internalized fractions measured using Wallac Wizard 1470 γ counter. As a control, [^177Lu]Lu-PSMA-617 and [^68Ga]Ga-PSMA-11 were used.

T1 sequence (Q04609 whole entry): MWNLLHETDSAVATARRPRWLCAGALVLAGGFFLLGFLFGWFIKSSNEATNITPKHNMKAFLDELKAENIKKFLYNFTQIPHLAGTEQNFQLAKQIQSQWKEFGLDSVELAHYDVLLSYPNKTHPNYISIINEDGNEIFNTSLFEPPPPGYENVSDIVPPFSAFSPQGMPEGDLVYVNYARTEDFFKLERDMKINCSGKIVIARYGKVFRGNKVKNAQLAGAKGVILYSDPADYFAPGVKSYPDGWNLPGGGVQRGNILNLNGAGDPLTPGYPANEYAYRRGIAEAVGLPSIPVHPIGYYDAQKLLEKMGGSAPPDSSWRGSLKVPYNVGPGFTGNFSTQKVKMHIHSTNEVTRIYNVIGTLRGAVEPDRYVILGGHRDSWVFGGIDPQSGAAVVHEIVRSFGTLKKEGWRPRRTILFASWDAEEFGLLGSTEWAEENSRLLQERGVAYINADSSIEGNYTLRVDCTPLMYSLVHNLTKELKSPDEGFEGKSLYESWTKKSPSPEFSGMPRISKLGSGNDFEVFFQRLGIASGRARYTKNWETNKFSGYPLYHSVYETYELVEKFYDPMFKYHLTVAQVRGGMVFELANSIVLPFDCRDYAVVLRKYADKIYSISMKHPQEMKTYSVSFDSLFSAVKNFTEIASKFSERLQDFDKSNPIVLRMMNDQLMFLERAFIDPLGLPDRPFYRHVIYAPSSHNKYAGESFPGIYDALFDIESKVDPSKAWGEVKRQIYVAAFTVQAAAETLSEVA

In the case of `O=C([O-])CN1CCN(CC(=O)[O-])CCN(CC(=O)NCC2CCC(C(=O)NC(Cc3c[nH]c4ccccc34)C(=O)NCCCCC(NC(=O)NC(CCC(=O)O)C(=O)O)C(=O)O)CC2)CCN(CC(=O)[O-])CC1.[47Sc+3]` (centres unmarked) [[^47Sc]Sc-PSMA-D4], the “T/B (ratio tumor to blood)” value ([1]; 1 h after i.v. injection) is reported as 31.6, the “T/K (ratio tumor to kidneys)” value ([1]; 1 h after i.v. injection) is reported as 1.0 and the “T/M (ratio tumor to muscle)” value ([1]; 1 h after i.v. injection) is reported as 135.2. The blood ([1]; 1 h after i.v. injection) was 0.29 ± 0.08 %ID g^−1, the kidneys ([1]; 1 h after i.v. injection) was 9.46 ± 1.44 %ID g^−1 and the large intestine ([1]; 1 h after i.v. injection) was 0.09 ± 0.03 %ID g^−1. It also gave a liver ([1]; 1 h after i.v. injection) of 0.13 ± 0.02 %ID g^−1, a muscle ([1]; 1 h after i.v. injection) of 0.10 ± 0.06 %ID g^−1 and a small intestine ([1]; 1 h after i.v. injection) of 0.35 ± 0.19 %ID g^−1. The spleen ([1]; 1 h after i.v. injection) was 0.52 ± 0.19 %ID g^−1, the stomach ([1]; 1 h after i.v. injection) was 0.23 ± 0.09 %ID g^−1 and the tumor ([1]; 1 h after i.v. injection) was 9.24 ± 5.13 %ID g^−1. For the same compound, the urine ([1]; 1 h after i.v. injection) was 89.23 ± 2.63 %ID, the “T/B (ratio tumor to blood)” value ([1]; 4 h after i.v. injection) was 120.9 and the “T/K (ratio tumor to kidneys)” value ([1]; 4 h after i.v. injection) was 4.3. The “T/M (ratio tumor to muscle)” value ([1]; 4 h after i.v. injection) was 24.3, the blood ([1]; 4 h after i.v. injection) was 0.08 ± 0.04 %ID g^−1 and the kidneys ([1]; 4 h after i.v. injection) was 2.16 ± 0.86 %ID g^−1. It also gave a large intestine ([1]; 4 h after i.v. injection) of 0.70 ± 0.48 %ID g^−1, a liver ([1]; 4 h after i.v. injection) of 0.08 ± 0.04 %ID g^−1 and a muscle ([1]; 4 h after i.v. injection) of 0.39 ± 0.17 %ID g^−1. For the same compound, the small intestine ([1]; 4 h after i.v. injection) was 0.41 ± 0.30 %ID g^−1, the spleen ([1]; 4 h after i.v. injection) was 0.57 ± 0.31 %ID g^−1 and the stomach ([1]; 4 h after i.v. injection) was 0.39 ± 0.17 %ID g^−1. For the same compound, the tumor ([1]; 4 h after i.v. injection) was 9.22 ± 2.21 %ID g^−1, the urine ([1]; 4 h after i.v. injection) was 93.42 ± 2.07 %ID and the “T/B (ratio tumor to blood)” value ([1]; 6 h after i.v. injection) was 207.6. For the same compound, the “T/K (ratio tumor to kidneys)” value ([1]; 6 h after i.v. injection) was 6.1, the “T/M (ratio tumor to muscle)” value ([1]; 6 h after i.v. injection) was 251.0 and the blood ([1]; 6 h after i.v. injection) was 0.04 ± 0.01 %ID g^−1. For the same compound, the kidneys ([1]; 6 h after i.v. injection) was 1.42 ± 0.28 %ID g^−1, the large intestine ([1]; 6 h after i.v. injection) was 0.69 ± 0.17 %ID g^−1 and the liver ([1]; 6 h after i.v. injection) was 0.06 ± 0.01 %ID g^−1. It also gave a muscle ([1]; 6 h after i.v. injection) of 0.03 ± 0.02 %ID g^−1, a small intestine ([1]; 6 h after i.v. injection) of 0.11 ± 0.07 %ID g^−1 and a spleen ([1]; 6 h after i.v. injection) of 0.08 ± 0.04 %ID g^−1. For the same compound, the stomach ([1]; 6 h after i.v. injection) was 0.08 ± 0.09 %ID g^−1, the tumor ([1]; 6 h after i.v. injection) was 8.65 ± 3.19 %ID g^−1 and the urine ([1]; 6 h after i.v. injection) was 94.89 ± 1.34 %ID. The “T/B (ratio tumor to blood)” value ([1]; 24 h after i.v. injection) was 467.3, the “T/K (ratio tumor to kidneys)” value ([1]; 24 h after i.v. injection) was 18.4 and the “T/M (ratio tumor to muscle)” value ([1]; 24 h after i.v. injection) was 229.0. The blood ([1]; 24 h after i.v. injection) was 0.01 ± 0.01 %ID g^−1, the kidneys ([1]; 24 h after i.v. injection) was 0.29 ± 0.09 %ID g^−1 and the large intestine ([1]; 24 h after i.v. injection) was 0.12 ± 0.12 %ID g^−1. It also gave a liver ([1]; 24 h after i.v. injection) of 0.03 ± 0.01 %ID g^−1, a muscle ([1]; 24 h after i.v. injection) of 0.02 ± 0.02 %ID g^−1 and a small intestine ([1]; 24 h after i.v. injection) of 0.34 ± 0.18 %ID g^−1. For the same compound, the spleen ([1]; 24 h after i.v. injection) was 0.04 ± 0.01 %ID g^−1, the stomach ([1]; 24 h after i.v. injection) was 0.05 ± 0.06 %ID g^−1 and the tumor ([1]; 24 h after i.v. injection) was 5.28 ± 3.01 %ID g^−1. For the same compound, the urine ([1]; 24 h after i.v. injection) was 97.89 ± 1.22 %ID, the “T/B (ratio tumor to blood)” value ([1]; 48 h after i.v. injection) was 78.8 and the “T/K (ratio tumor to kidneys)” value ([1]; 48 h after i.v. injection) was 16.0. The “T/M (ratio tumor to muscle)” value ([1]; 48 h after i.v. injection) was 66.7, the blood ([1]; 48 h after i.v. injection) was 0.05 ± 0.03 %ID g^−1 and the kidneys ([1]; 48 h after i.v. injection) was 0.26 ± 0.14 %ID g^−1. For the same compound, the large intestine ([1]; 48 h after i.v. injection) was 1.63 ± 0.31 %ID g^−1, the liver ([1]; 48 h after i.v. injection) was 0.04 ± 0.01 %ID g^−1 and the muscle ([1]; 48 h after i.v. injection) was 0.06 ± 0.06 %ID g^−1. The small intestine ([1]; 48 h after i.v. injection) was 0.45 ± 0.13 %ID g^−1, the spleen ([1]; 48 h after i.v. injection) was 0.10 ± 0.09 %ID g^−1 and the stomach ([1]; 48 h after i.v. injection) was 0.03 ± 0.04 %ID g^−1. For the same compound, the tumor ([1]; 48 h after i.v. injection) was 4.11 ± 1.08 %ID g^−1, the urine ([1]; 48 h after i.v. injection) was 95.37 ± 1.89 %ID and the blood half-life [2] was 10.4 min and 10.2 min. For the same compound, the Kd [3] was 3.4 ± 2 nM and the “Specific Binding” value [3] was 98.8 ± 0.9%.
Work on `O=C([O-])CN1CCN(CC(=O)[O-])CCN(CC(=O)NCC2CCC(C(=O)NC(Cc3c[nH]c4ccccc34)C(=O)NCCCCC(NC(=O)NC(CCC(=O)O)C(=O)O)C(=O)O)CC2)CCN(CC(=O)[O-])CC1.[177Lu+3]` (centres unmarked) [[^177Lu]Lu-PSMA-D4] yielded a blood half-life [4] of 33 min, a logD [5] of −5.16 ± 0.07 and an Internalization [6] of 37.0 ± 3.3%. The “Total Binding” value [6] was 10.2%, the Kd [3] was 2.4 ± 0.3 nM and the “Specific Binding” value [3] was 99.1 ± 0.3%.
